Experimental data: patent publication US10800788B2, “4-(aryl)-N-(3-alkoxyfuro[2,3-b]pyrazin-2-yl)-piperazine-1-carboxamide derivative and antiproliferative effect thereof” (Dongguk University Industry-Academic Cooperation Foundation, priority 2016, dated 2020)

What was measured:
[1] = system: MDA-MB-231 (breast cancer) cell line; assay: Cell growth inhibition experiment (SRB), MDA-MB-231; format: cell-based, human; conditions: Homo sapiens, MDA-MB-231, 96 h, 96 hours incubation
Protocol: (§1) The cell lines below were used in order to confirm the efficacy of the compounds synthesized in Examples 1 to 60. Human PANC-1 (pancreatic cancer) and MDA-MB-231 (breast cancer) cell lines were obtained from the American Type Culture Collection (ATCC; Manassas, Va.); and HN31 (head and neck cancer) and UMRC2 (kidney cancer) cell lines were secured from the United States National Institutes of Health (Bethesda, Md.). The MDA-MB-231, UMRC2, HN31, and PANC-1 cell lines were cultured in Dulbecco modified Eagle medium (DMEM; Invitrogen, Carlsbad, Calif.) containing FBS (10%), HEPES (10 mM), penicillin (100 U/mL), and streptomycin (100 μg/mL). All cell lines were cultured in an incubator (37° C., 5% CO2).
(§2) The 4-(aryl)-N-(3-alkoxyfuro[2,3-b]pyrazin-2-yl)-piperazine-1-carboxamide derivative compounds synthesized according to Examples 1 to 60 of the present invention were treated with various human tissue-derived cancer cell lines cultured according to Experimental Example 1, and thus the inhibitory effect of the growth of human cancer cells was confirmed. The cell growth inhibition experiment was conducted using the sulforhodamine B (SRB) technique (Skehan et al., J. National Cancer Institute, 1990, 82: 1107-1112). Specifically, each cell line was seeded in a 96-well plate at a density of 2 to 3×10^3 cells/well, cultured overnight, and then treated with the 4-(aryl)-N-(3-alkoxyfuro[2,3-b]pyrazin-2-yl)-piperazine-1-carboxamide derivative compounds of the present invention. The experiment was repeated 3 times for each compound. Cells treated with each compound were additionally incubated for 96 hours, fixed with 10% trichloroacetic acid (TCA), and then left at 4° C. for 1 hour. The resultant was washed 3 times with distilled water. Thereafter, each cell was treated with 0.4% sulforhodamine B dissolved in 1% acetic acid, stained for 30 minutes, and then washed 4 times with 1% acetic acid. The resultant was dried in the air. After shaking the resultant in Tris solution (10 mM) for 5 minutes, the absorbance was measured at 530 nm using a Benchmark Plus Microplate reader (Bio-Rad Laboratories, Hercules, Calif.).
(§3) In order to convert the OD530 value to the number of viable cells per each well, the measured OD530 value was compared to the standard OD530-vs.-cell number curve of each cell line. The percent survival was calculated using the following formula: % survival=Nlive cells(test)/Nlive cells(control)×100

[2] = system: UMRC2 (kidney cancer) cell line; assay: Cell growth inhibition experiment (SRB), UMRC2; format: cell-based, human; conditions: Homo sapiens, UMRC2, 96 h, 96 hours incubation
Protocol: as §1, §2, §3

[3] = system: PANC-1 (pancreatic cancer) cell line; assay: Cell growth inhibition experiment (SRB), PANC-1; format: cell-based; conditions: Homo sapiens, PANC-1, 96 h, 96 hours incubation
Protocol: as §1, §2, §3

[4] = system: HN31 (head and neck cancer) cell line; assay: Cell growth inhibition experiment (SRB), HN31; format: cell-based, human; conditions: Homo sapiens, 96 h, 96 hours incubation
Protocol: as §1, §2, §3

A549 = assay: Cell growth inhibition experiment (SRB), A549; format: cell-based; conditions: Homo sapiens, A549, 96 h, 96 hours incubation, read-out: IC50 (μM) for cancer cell line A549
Protocol: as §2, §3

HEK293 = assay: Cell growth inhibition experiment (SRB), HEK293; format: cell-based, human; conditions: Homo sapiens, HEK293, 96 h, 96 hours incubation, read-out: IC50 (μM) for cancer cell line HEK293
Protocol: as §2, §3

HUVEC = assay: Cell growth inhibition experiment (SRB), HUVEC; format: cell-based, human; conditions: Homo sapiens, HUVEC, 96 h, 96 hours incubation, read-out: IC50 (μM) […]
Protocol: as §2, §3

HT29 = assay: Cell growth inhibition experiment (SRB), HT29; format: cell-based, human; conditions: Homo sapiens, HT-29, 96 h, 96 hours incubation, read-out: IC50 (μM) for cancer cell line HT29
Protocol: as §2, §3

SK-OV-3 = assay: Cell growth inhibition experiment (SRB), SK-OV-3; format: cell-based, human; conditions: Homo sapiens, SK-OV-3, 96 h, 96 hours incubation, read-out: IC50 (μM) for cancer cell line SK-OV-3
Protocol: as §2, §3

| Structure (SMILES) | IC50 [1] [µM] | IC50 [2] [µM] | IC50 [3] [µM] | IC50 [4] [µM] | IC50 (A549) [µM] | IC50 (HT29) [µM] | IC50 (SK-OV-3) [µM] | IC50 (HEK293) [µM] | IC50 (HUVEC) [µM] |
| --- | --- | --- | --- | --- | --- | --- | --- | --- | --- |
| CCOc1nc2oc(C)cc2nc1NC(=O)N1CCN(c2cc(C(F)(F)F)cc(C(F)(F)F)c2)CC1 [Example 39, 4-(3,5-Bis(trifluoromethyl)phenyl)-N-(3-ethoxy-6-methylfuro[2,3-b]pyrazin-2-yl)piperazine-1-carboxamide] | < 2.5 | < 2.5 | < 2.5 | < 2.5 | < 2.5 | < 2.5 | < 2.5 | < 2.5 | < 2.5 |
| CCOc1nc2oc(C)cc2nc1NC(=O)N1CCN(c2cccc(OC(F)(F)F)c2)CC1 [Example 40, N-(3-Ethoxy-6-methylfuro[2,3-b]pyrazin-2-yl)-4-(3-(trifluoromethoxy)phenyl)piperazine-1-carboxamide] | < 2.5 | < 2.5 | < 2.5 | < 2.5 | < 2.5 | < 2.5 | < 2.5 | < 2.5 | < 2.5 |
| COc1cc(OC)cc(N2CCN(C(=O)Nc3nc4cc(Cl)oc4nc3OC)CC2)c1 [Example 41, N-(6-Chloro-3-methoxyfuro[2,3-b]pyrazin-2-yl)-4-(3,5-dimethoxyphenyl)piperazine-1-carboxamide] | 0.51 | 0.32 | 0.36 | 0.68 | 1.87 | 1.87 | < 2.5 | 1.66 | 1.73 |
| COc1cc(C)cc(N2CCN(C(=O)Nc3nc4cc(Cl)oc4nc3OC)CC2)c1 [Example 42, N-(6-Chloro-3-methoxyfuro[2,3-b]pyrazin-2-yl)-4-(3-methoxy-5-methylphenyl)piperazine-1-carboxamide] | 0.36 | 1.68 | 1.23 | 1.68 | 1.87 | 1.87 | < 2.5 | 1.37 | 1.47 |
| COc1cc(OCCN(C)C)cc(N2CCN(C(=O)Nc3nc4cc(Cl)oc4nc3OC)CC2)c1 [Example 44, N-(6-Chloro-3-methoxyfuro[2,3-b]pyrazin-2-yl)-4-(3-(2-(dimethylamino)ethoxy)-5-methoxyphenyl)piperazine-1-carboxamide] | 0.43 | 0.38 | 0.61 | 0.53 | 0.36 | 0.87 | < 2.5 | 0.71 | 0.66 |
| COc1nc2oc(Cl)cc2nc1NC(=O)N1CCN(c2cc(C)cc(C)c2)CC1 [Example 45, N-(6-Chloro-3-methoxyfuro[2,3-b]pyrazin-2-yl)-4-(3,5-dimethylphenyl)piperazine-1-carboxamide] | 0.69 | 0.32 | 0.68 | 1.68 | 1.81 | < 2.5 | < 2.5 | 2.01 | < 2.5 |
| COc1nc2oc(Cl)cc2nc1NC(=O)N1CCN(c2cc(F)cc(F)c2)CC1 [Example 47, N-(6-Chloro-3-methoxyfuro[2,3-b]pyrazin-2-yl)-4-(3,5-difluorophenyl)piperazine-1-carboxamide] | 0.43 | 0.68 | 0.41 | 0.68 | 0.57 | 1.92 | 1.93 | 0.63 | 1.87 |
| COc1nc2oc(Cl)cc2nc1NC(=O)N1CCN(c2cc(C(F)(F)F)cc(C(F)(F)F)c2)CC1 [Example 49, 4-(3,5-Bis(trifluoromethyl)phenyl)-N-(6-chloro-3-methoxy-furo[2,3-b]pyrazin-2-yl)piperazine-1-carboxamide] | 0.32 | 1.03 | 1.68 | 1.17 | < 2.5 | < 2.5 | < 2.5 | < 2.5 | < 2.5 |
| COc1nc2oc(Cl)cc2nc1NC(=O)N1CCN(c2cccc(OC(F)(F)F)c2)CC1 [Example 50, N-(6-Chloro-3-methoxy-furo[2,3-b]pyrazin-2-yl)-4-(3-(trifluoromethoxy)phenyl)piperazine-1-carboxamide] | < 2.5 | < 2.5 | < 2.5 | < 2.5 | < 2.5 | < 2.5 | < 2.5 | < 2.5 | < 2.5 |

More lines, main results first:

| IC50 [1] [µM] | IC50 [2] [µM] | IC50 [3] [µM] | IC50 [4] [µM] | IC50 (A549) [µM] | IC50 (HT29) [µM] | IC50 (SK-OV-3) [µM] | Structure (SMILES) | IC50 (HEK293) [µM] | IC50 (HUVEC) [µM] |
| --- | --- | --- | --- | --- | --- | --- | --- | --- | --- |
| 0.15 | 0.21 | 0.24 | 0.31 | 0.41 | < 2.5 | < 2.5 | CCOc1nc2oc(C)cc2nc1NC(=O)N1CCN(c2cc(F)cc(OC)c2)CC1 [Example 33, N-(3-Ethoxy-6-methylfuro[2,3-b]pyrazin-2-yl)-4-(3-fluoro-5-methoxyphenyl)piperazine-1-carboxamide] | 0.51 | < 2.5 |
| 0.36 | 1.21 | 0.44 | 1.02 | 0.68 | < 2.5 | < 2.5 | CCOc1nc2oc(C)cc2nc1NC(=O)N1CCN(c2cc(OC)cc(OCCN(C)C)c2)CC1 [Example 34, 4-(3-(2-(Dimethylamino)ethoxy)-5-methoxyphenyl)-N-(3-ethoxy-6-methylfuro[2,3-b]pyrazin-2-yl)piperazine-1-carboxamide] | 0.44 | < 2.5 |
| 0.24 | 0.54 | 0.43 | 0.44 | 1.02 | < 2.5 | < 2.5 | CCOc1nc2oc(C)cc2nc1NC(=O)N1CCN(c2cc(C)cc(C)c2)CC1 [Example 35, 4-(3,5-Dimethylphenyl)-N-(3-ethoxy-6-methylfuro[2,3-b]pyrazin-2-yl)piperazine-1-carboxamide] | 1.12 | < 2.5 |
| 0.45 | 0.36 | 0.12 | 0.36 | 1.32 | 1.12 | 1.12 | CCOc1nc2oc(C)cc2nc1NC(=O)N1CCN(c2cc(C)cc(F)c2)CC1 [Example 36, N-(3-Ethoxy-6-methylfuro[2,3-b]pyrazin-2-yl)-4-(3-fluoro-5-methylphenyl)piperazine-1-carboxamide] | 1.32 | 1.12 |
| 0.15 | 0.36 | 0.51 | 0.68 | 0.44 | 1.28 | 2.13 | CCOc1nc2oc(C)cc2nc1NC(=O)N1CCN(c2cc(F)cc(F)c2)CC1 [Example 37, 4-(3,5-Difluorophenyl)-N-(3-ethoxy-6-methylfuro[2,3-b]pyrazin-2-yl)piperazine-1-carboxamide] | 1.63 | 1.25 |
| < 2.5 | < 2.5 | < 2.5 | < 2.5 | < 2.5 | < 2.5 | < 2.5 | CCOc1nc2oc(C)cc2nc1NC(=O)N1CCN(c2cc(F)cc(C(F)(F)F)c2)CC1 [Example 38, N-(3-Ethoxy-6-methylfuro[2,3-b]pyrazin-2-yl)-4-(3-fluoro-5-(trifluoromethyl)phenyl)piperazine-1-carboxamide] | < 2.5 | < 2.5 |
| 1.68 | 1.35 | 1.94 | 1.83 | < 2.5 | < 2.5 | < 2.5 | COc1nc2oc(Cl)cc2nc1NC(=O)N1CCN(c2cc(C)cc(F)c2)CC1 [Example 46, N-(6-Chloro-3-methoxyfuro[2,3-b]pyrazin-2-yl)-4-(3-fluoro-5-methylphenyl)piperazine-1-carboxamide] | < 2.5 | < 2.5 |
